For 20 molecules, IC50 and selectivity ratio results are on record in ChEMBL document CHEMBL3997846, “Synthesis and activity of nucleoside-based antiprotozoan compounds” (Bioorg Med Chem, 2017).

The subject of data set [1] is Trypanosoma brucei rhodesiense. Briefly: Antitrypanosomal activity against bloodstream forms of Trypanosoma brucei rhodesiense STIB900 trypomastigotes after 72 hrs by alamar blue assay. The conditions noted are these: STIB900, 72 h. The data set is classed as functional.
A short description of data set [2]: Selectivity index, ratio of IC50 for rat L6 cells to IC50 for bloodstream forms of Trypanosoma brucei rhodesiense STIB900 trypomastigotes. The data set is classed as toxicity. The conditions noted are these: read-out: Ratio IC50.
Data set [3] is described as follows: Selectivity index, ratio of IC50 for rat L6 cells to IC50 for chloroquine resistant Plasmodium falciparum K1 erythrocytic stage. The conditions noted are these: read-out: Ratio IC50. The data set is classed as toxicity.
A short description of data set [4]: Selectivity index, ratio of IC50 for rat L6 cells to IC50 for Leishmania donovani MHOM/SD/62/ISCL2D axenic amastigotes. The data set is classed as toxicity. As to conditions: read-out: Ratio IC50.
The test system of a further data set is Trypanosoma cruzi. Briefly: Antitrypanosomal activity against Trypanosoma cruzi Tulahuen strain C2C4 amastigote forms harboring LacZ infected in rat L6 cells after 96 hrs by CPRG/Nonidet reagent based photometric method. The data set is classed as functional, cell-based. As to conditions: Tulahuen strain C2C4, L6, 96 h.
A further data set deals with L6. Briefly: Cytotoxicity against rat L6 cells assessed as growth inhibition after 72 hrs by alamar blue assay. The class given is cell-based. The conditions noted are these: L6, 72 h. (In general: Alamar Blue is a resazurin reagent that responds to reducing activity.)
Data set [5] is described as follows: Selectivity index, ratio of IC50 for rat L6 cells to IC50 for Trypanosoma cruzi Tulahuen strain C2C4 amastigote forms harboring LacZ infected in rat L6 cells. The data set is classed as toxicity, cell-based. As to conditions: read-out: Ratio IC50.
The next data set relates to Plasmodium falciparum. Briefly: Antiplasmodial activity against chloroquine resistant Plasmodium falciparum K1 erythrocytic stage assessed as reduction in [3H]hypoxanthine incorporation after 48 hrs by liquid scintillation counting assay. The data set is classed as functional.
Another data set has as its system Leishmania donovani. Briefly: Antileishmanial activity against Leishmania donovani MHOM/SD/62/ISCL2D axenic amastigotes after 72 hrs by alamar blue assay. The class given is functional.

SMILES strings stand for the structures.

The IC50 is the midpoint of a concentration-inhibition curve. For `CC(=O)O[C@@H]1[C@H](OC(C)=O)[C@@H](CI)O[C@H]1n1cnc2c(N)nc(F)nc21`, the IC50 was determined as 15 µM in data set [1]; 14 µM in the data set on Trypanosoma cruzi; 6.3 µM with L6; 1.1 µM with Plasmodium falciparum; 9.2 µM in the data set on Leishmania donovani. In addition, the selectivity ratio in [2] turned out to be 0.4; in data set [3], 6; in data set [4] it was 0.7; in data set [5] it was 0.4.

For the molecule `CC(=O)O[C@@H]1[C@H](OC(C)=O)[C@@H](C[S+](C)[O-])O[C@H]1n1cnc2c(N)nc(Cl)nc21` (stereo not given in full), the IC50 in data set [1] is 106 µM; in the data set with Trypanosoma cruzi, 106 µM; in the data set with L6 it was 168 µM; with Plasmodium falciparum, 106 µM; with Leishmania donovani, above 230 µM. The selectivity ratio was 2 in data set [2], 2 in data set [3], below 0.7 in data set [4] and 2 in data set [5].

On to `CNc1nc(N)nc2c1ncn2[C@@H]1O[C@H](C)[C@@H](O)[C@H]1O`, for which the IC50 was found to be 127 µM in data set [1]; 15 µM in the data set with Trypanosoma cruzi; 211 µM with L6; 19 µM with Plasmodium falciparum; 326 µM in the data set with Leishmania donovani. Besides, the selectivity ratio was determined as 2 in data set [2], 11 in data set [3], 0.6 in data set [4] and 14 in data set [5].

Regarding `COc1nc(I)nc2c1ncn2[C@@H]1O[C@H](C)[C@@H](O)[C@H]1O`, the IC50 was found to be 108 µM in data set [1]; 113 µM with Trypanosoma cruzi; 158 µM in the data set on L6; 65 µM in the data set on Plasmodium falciparum; 126 µM with Leishmania donovani. In addition, the selectivity ratio in data set [2] amounted to 2; in data set [3] it was 2; in data set [4], 1; in data set [5], 1.

Take `CC(=O)O[C@@H]1[C@H](OC(C)=O)[C@@H](CN=[N+]=[N-])O[C@H]1n1cnc2c(N)nc(F)nc21`: the concentration for half-maximal inhibition (IC50) in data set [1] came out at 23 µM; with Trypanosoma cruzi it was 39 µM; in the data set with L6, 18 µM; with Plasmodium falciparum it was 1.5 µM; in the data set with Leishmania donovani, 33 µM. Also, the selectivity ratio is 0.8 in data set [2], 12 in data set [3], 0.5 in data set [4] and 0.5 in data set [5].

For `CC(=O)NC[C@H]1O[C@@H](n2cnc3c(N)nc(Cl)nc32)[C@H](O)[C@@H]1O`, the IC50 in data set [1] is 79 µM; with Trypanosoma cruzi, 174 µM; with L6 it was 189 µM; in the data set on Plasmodium falciparum, 88 µM; in the data set with Leishmania donovani, above 280 µM. The selectivity ratio in data set [2] is 2; in data set [3], 2; in [4], below 0.7; in data set [5], 1.

For `CC(=O)O[C@@H]1[C@H](OC(C)=O)[C@@H](CI)O[C@H]1n1cnc2c(N)nc(Cl)nc21`, the IC50 in data set [1] is 12 µM; with Trypanosoma cruzi, 10 µM; in the data set on L6 it was 86 µM; with Plasmodium falciparum, 3.9 µM; with Leishmania donovani, 15 µM. Besides, the selectivity ratio in data set [2] worked out at 7; in data set [3] it was 22; in data set [4] it was 6; in data set [5] it was 9.

As for `[N-]=[N+]=NC[C@H]1O[C@@H](n2cnc3c(N)nc(F)nc32)[C@H](O)[C@@H]1O`, the concentration for half-maximal inhibition (IC50) in [1] came out at 22 µM; in the data set on Trypanosoma cruzi, 13 µM; with L6 it was 3.1 µM; with Plasmodium falciparum it was 0.89 µM; in the data set on Leishmania donovani it was 1 µM. For the same molecule, the selectivity ratio in data set [2] was found to be 0.1; in data set [3], 3; in [4] it was 3; in data set [5], 0.2.

On to `CC(=O)O[C@@H]1[C@H](OC(C)=O)[C@@H](CN=[N+]=[N-])O[C@H]1n1cnc2c(N)nc(Cl)nc21`, for which the IC50 in data set [1] worked out at 64 µM; in the data set on Trypanosoma cruzi, 93 µM; in the data set with L6, 141 µM; with Plasmodium falciparum, 13 µM; in the data set on Leishmania donovani it was 114 µM. The selectivity ratio in data set [2] was 2; in data set [3] it was 11; in data set [4] it was 1; in data set [5], 2.

With `CSC[C@H]1O[C@@H](n2cnc3c(N)nc(Cl)nc32)[C@H](OC(C)=O)[C@@H]1OC(C)=O`, the IC50 in [1] amounted to 31 µM; in the data set on Trypanosoma cruzi, 161 µM; in the data set on L6 it was 216 µM; with Plasmodium falciparum, 12 µM; with Leishmania donovani, 39 µM. Also, the selectivity ratio in data set [2] stood at 7; in [3], 18; in data set [4] it was 6; in [5], 1.

In the case of `[N-]=[N+]=NC[C@H]1O[C@@H](n2cnc3c(N)nc(Cl)nc32)[C@H](O)[C@@H]1O`, the IC50 in [1] worked out at 56 µM; in the data set with Trypanosoma cruzi, 76 µM; with L6, 155 µM; in the data set with Plasmodium falciparum, 9.8 µM; with Leishmania donovani, 193 µM. Besides, the selectivity ratio in data set [2] worked out at 3; in data set [3], 16; in data set [4] it was 0.8; in [5], 2.

With `CS(=O)(=O)C[C@H]1O[C@@H](n2cnc3c(N)nc(Cl)nc32)[C@H](O)[C@@H]1O`, the IC50 in data set [1] is 126 µM; in the data set with Trypanosoma cruzi, 156 µM; in the data set on L6 it was 156 µM; in the data set with Plasmodium falciparum it was 25 µM; with Leishmania donovani it was above 275 µM. In addition, the selectivity ratio in data set [2] is 1; in data set [3], 6; in data set [4], below 0.6; in data set [5], 1.

`CC(=O)NC[C@H]1O[C@@H](n2cnc3c(N)nc(Cl)nc32)[C@H](OC(C)=O)[C@@H]1OC(C)=O`: the 50% inhibitory concentration (IC50) was 113 µM in [1]; 125 µM in the data set with Trypanosoma cruzi; 190 µM with L6; 102 µM in the data set on Plasmodium falciparum; above 230 µM in the data set with Leishmania donovani. The selectivity ratio in data set [2] was 2; in data set [3], 2; in data set [4], below 0.8; in data set [5], 2.

As to `CNc1nc(NC)c2ncn([C@@H]3O[C@H](C)[C@@H](O)[C@H]3O)c2n1`, the IC50 is above 340 µM in data set [1]; 109 µM in the data set with Trypanosoma cruzi; 187 µM in the data set with L6; above 170 µM with Plasmodium falciparum; above 340 µM with Leishmania donovani. The selectivity ratio in data set [2] is below 0.6; in data set [3] it was below 1; in data set [4] it was below 0.6; in data set [5] it was 2.

In the case of `CC(=O)O[C@@H]1[C@H](OC(C)=O)[C@@H](CN2C(=O)c3ccccc3C2=O)O[C@H]1n1cnc2c(N)nc(F)nc21`, the IC50 in data set [1] is 160 µM; in the data set with Trypanosoma cruzi it was 103 µM; with L6 it was 129 µM; in the data set with Plasmodium falciparum, 45 µM; with Leishmania donovani it was above 200 µM. For the same molecule, the selectivity ratio in data set [2] is 0.8; in data set [3], 3; in data set [4], below 0.6; in [5], 1.

For `CSC[C@H]1O[C@@H](n2cnc3c(N)nc(F)nc32)[C@H](OC(C)=O)[C@@H]1OC(C)=O`, the IC50 in [1] came to 26 µM; with Trypanosoma cruzi, 15 µM; in the data set with L6 it was 15 µM; in the data set with Plasmodium falciparum it was 2.8 µM; in the data set with Leishmania donovani it was 18 µM. Moreover, the selectivity ratio in [2] is 0.6; in [3], 5; in data set [4], 0.8; in data set [5], 1.

Regarding `CNc1nc(Cl)c2ncn([C@@H]3O[C@H](C)[C@@H](O)[C@H]3O)c2n1`, the IC50 was 230 µM in data set [1]; 35 µM with Trypanosoma cruzi; 175 µM with L6; 150 µM with Plasmodium falciparum; above 335 µM with Leishmania donovani. Moreover, the selectivity ratio in data set [2] is 0.8; in data set [3], 1; in data set [4], below 0.5; in data set [5], 5.

In the case of `CC(=O)NC[C@H]1O[C@@H](n2cnc3c(N)nc(F)nc32)[C@H](O)[C@@H]1O`, the IC50 is above 300 µM in data set [1]; 178 µM in the data set with Trypanosoma cruzi; 182 µM in the data set with L6; 19 µM with Plasmodium falciparum; 117 µM with Leishmania donovani. Further, the selectivity ratio in data set [2] is below 0.6; in data set [3], 10; in data set [4], 2; in [5], 1.

Regarding `CC(=O)O[C@@H]1[C@H](OC(C)=O)[C@@H](CN2C(=O)c3ccccc3C2=O)O[C@H]1n1cnc2c(N)nc(Cl)nc21`, the IC50 in data set [1] turned out to be 161 µM; in the data set with Trypanosoma cruzi, 101 µM; with L6, 144 µM; in the data set on Plasmodium falciparum, 23 µM; in the data set on Leishmania donovani it was 139 µM. The selectivity ratio in [2] was found to be 0.9; in [3], 6; in data set [4], 1; in data set [5], 1.

Regarding `CC(=O)NC[C@H]1O[C@@H](n2cnc3c(N)nc(F)nc32)[C@H](OC(C)=O)[C@@H]1OC(C)=O`, the IC50 in data set [1] is 115 µM; in the data set with Trypanosoma cruzi, 106 µM; in the data set on L6, 138 µM; in the data set on Plasmodium falciparum, 37 µM; in the data set with Leishmania donovani, above 240 µM. In addition, the selectivity ratio in data set [2] is 1; in [3], 4; in data set [4] it was below 0.6; in data set [5] it was 1.
